Here are results for four compounds from PubChem BioAssay AID1919014 (Molecular Pharmacology Branch, DTP, NCI, 2023).

The structures appear in SMILES notation. “And” between values parts separate entries of the source, which are not always exact repeats. Equal values may be shown once.

The assay relates to NCI-H1341 complex spheroids, percent test/control. In words: Anticancer human tumor NCI-H1341 cell line growth inhibition [AhR].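 For all read-outs here: spheroids exposed to agents for seven days before readout.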 The note with it: for viability, T/C: stronger effect = lower value. An excerpt: Multicellular complex tumor spheroid response to aryl hydrocarbon receptor antagonists in combination with a variety of drugs and investigational agents in selected tumor cell lines
The current study was undertaken to assess response to aryl hydrocarbon receptor antagonists in combination with standard-of-care drugs and investigational agents in solid tumor complex spheroid models. Complex spheroids include a stromal component modeled by human endothelial cells (HUVEC) and fibroblasts modeled by human mesenchymal stem cells (MSCs). The concentration ranges selected for each drug and investigational agent were based upon clinically achievable concentrations if the clinical Cmax of the agent was known.
Compounds. The drugs and investigational agents: BAY 2416964 (NSC825713), GNF351 (NSC835774), CH-223191 (NSC835775), CPI-455 (NSC825282), aza-TdCyd (NSC777586), decitabine (NSC127716), belinostat (NSC758774), entinostat (NSC756642), pevonedistat (NSC761192), tazemetostat (NSC777109), talazoparib (NSC765396), olaparib (NSC753686), selinexor (NSC780203), nedisertib (M3814, NSC802822), bortezomib (NSC756655), venetoclax (NSC766270), doxorubicin (NSC123127), elimusertib (BAY189344, NSC800525), ceralasertib (AZD6738, NSC777638), TAK-243 (NSC785004), alisertib (NSC759677), etoposide (NSC141540), topotecan (NSC609699), eribulin (NSC707389), gemcitabine (NSC613327), carboplatin (NSC241240), cisplatin (NSC119875), and SN-38 (NSC673596) were obtained from the National Cancer Institute (NCI) Developmental Therapeutics Program Chemical Repository (32). The FDA-approved anticancer drug set is available from the Developmental Therapeutics Program at https://dtp.cancer.gov/organization/dscb/obtaining/available plates.htm. […] The stock solutions were prepared in dimethyl sulfoxide (DMSO, Sigma-Aldrich, St. Louis, MO, cat. D2650), except for the platinum compounds which were prepared in saline (Quality Biological, Gaithersburg, MD, cat. 114-055-101), at 800-fold the tested concentration and stored at -70 degrees C prior to their use. All drugs and investigational agents were tested over a range starting from a high concentration at or near the clinical Cmax and decreasing in half-log increments. If the clinical Cmax for an agent had not been determined, the highest concentration tested was 10 microM (Table 1).
Cell Culture. All cells were maintained in an incubator at 37 degrees C and 5% CO2 with 95% humidity. The PDC lines were cultured according to standard operating procedures established by the NCI PDMR (https://pdmr.cancer.gov). Briefly, all PDCs were thawed and cultured in Matrigel-coated flasks prepared with a working solution of 1X Ham's F-12 nutrient mix, without supplementation (Invitrogen, Waltham, MA, cat. 11765054), 100 U/mL penicillin-streptomycin (Invitrogen, cat. 15140122), and 2.5% Matrigel (Corning Inc., Corning, NY, cat. 354248) for the first three passages. All PDCs were cultured in complete DMEM/F-12 media containing advanced DMEM/F-12 (Invitrogen, cat. 12634028), 4.9% defined fetal bovine serum, heat inactivated (HyClone Laboratories Inc., Logan, UT, cat. SH30070.03HI), 389 ng/mL hydrocortisone (Sigma-Aldrich, cat. H4001), 9.7 ng/mL human EGF recombinant protein (Invitrogen, cat. PHG0313), 23.4 microg/mL adenine (Sigma-Aldrich, cat. A2786), 97.3 U/mL penicillin-streptomycin (Invitrogen, cat. 15140122), 1.9 mM L-glutamine (Invitrogen, cat. 25030081), and 9.7 microM Y-27632 dihydrochloride (Tocris Bioscience, Bristol, United Kingdom, cat. 1254). The PDCs were cultured in complete DMEM/F12 media without 10 microM Y-27632 dihydrochloride for at least two passages prior to the screen. The established cell lines NCI-H1341 and […] were cultured in DMEM/F-12, HEPES (Invitrogen, cat. 11330032), 5% defined fetal bovine serum (HyClone Laboratories Inc., cat. SH30070.03), ITS premix universal culture supplement [insulin (5 microg/mL), transferrin (5 microg/mL), and selenious acid (5 ng/mL)] […]

Setting [1] is: curve of first compound, second compound 0.1 µM.
Setting [2] is: curve of first compound, second compound 0.316 µM.
[3] abbreviates: curve of first compound, second compound 1 µM.
Where [4] appears, read: curve of first compound, second compound 3.16 µM.
Where [5] appears, read: curve of first compound, second compound 10 µM.
[6] abbreviates: second compound 0.1 µM, first compound 0.0316 µM.
Where [7] appears, read: second compound 0.1 µM, first compound 0.1 µM.
Where [8] appears, read: second compound 0.1 µM, first compound 0.316 µM.
Setting [9] is: second compound 0.1 µM, first compound 1 µM.
The mark [10] stands for this setting: second compound 0.1 µM, first compound 3.16 µM.
Where [11] appears, read: second compound 0.1 µM, first compound 10 µM.
[12] abbreviates: second compound 0.316 µM, first compound 0.0316 µM.
Where [13] appears, read: second compound 0.316 µM, first compound 0.1 µM.
[14] abbreviates: second compound 0.316 µM, first compound 0.316 µM.
Setting [15] is: second compound 0.316 µM, first compound 1 µM.
[16] abbreviates: second compound 0.316 µM, first compound 3.16 µM.
Where [17] appears, read: second compound 0.316 µM, first compound 10 µM.
Setting [18] is: second compound 1 µM, first compound 0.0316 µM.
Setting [19] is: second compound 1 µM, first compound 0.1 µM.
[20] abbreviates: second compound 1 µM, first compound 0.316 µM.
Where [21] appears, read: second compound 1 µM, first compound 1 µM.
Setting [22] is: second compound 1 µM, first compound 3.16 µM.
Setting [23] is: second compound 1 µM, first compound 10 µM.
Setting [24] is: second compound 3.16 µM, first compound 0.0316 µM.
Where [25] appears, read: second compound 3.16 µM, first compound 0.1 µM.
Where [26] appears, read: second compound 3.16 µM, first compound 0.316 µM.
Where [27] appears, read: second compound 3.16 µM, first compound 1 µM.
Where [28] appears, read: second compound 3.16 µM, first compound 3.16 µM.
The mark [29] stands for this setting: second compound 3.16 µM, first compound 10 µM.
[30] abbreviates: second compound 10 µM, first compound 0.0316 µM.
Where [31] appears, read: second compound 10 µM, first compound 0.1 µM.
The mark [32] stands for this setting: second compound 10 µM, first compound 0.316 µM.
[33] abbreviates: second compound 10 µM, first compound 1 µM.
Setting [34] is: second compound 10 µM, first compound 3.16 µM.
Setting [35] is: second compound 10 µM, first compound 10 µM.

Broadly, the IC50 is the concentration needed to halve the response being measured. By viability, T/C is commonly meant the result in the treated group divided by that in the control group, in per cent. On to `COc1cccc2c1C(=O)c1c(O)c3c(c(O)c1C2=O)CC(O)(C(=O)CO)CC3OC1CC(N)C(O)C(C)O1` (centres undefined) + Cc1cncc(-c2nc(NCCc3c[nH]c4ccccc34)c3ncn(C(C)C)c3n2)c1, for which the IC50 was under 31.6 nM under setting [1]; under 31.6 nM under setting [2]; under 31.6 nM under setting [3]; under 31.6 nM under setting [4]; under 31.6 nM under setting [5]. The viability, T/C under setting [6] is 51%; the viability, T/C under setting [7] was 43%; the viability, T/C under setting [8] is 33.4%; the viability, T/C under setting [9] was 16%; the viability, T/C under setting [10] was 0.94%; the viability, T/C under setting [11] is 5.91%. Besides, the viability, T/C by setting is: under setting [12], 43.4%; under setting [13], 39.2%; under setting [14], 34.8%; under setting [15], 13%; under setting [16], 0.92%; under setting [17], 4.49%. Further, the viability, T/C reads like this: under setting [18], 39.5%; under setting [19], 37.5%; under setting [20], 28.9%; under setting [21], 10.9%; under setting [22], 1.66%; under setting [23], 4.68%. Moreover, the viability, T/C runs as follows: under setting [24], 38.9%; under setting [25], 35%; under setting [26], 27.1%; under setting [27], 5.93%; under setting [28], 2.35%; under setting [29], 6.56%. Moreover, the viability, T/C under setting [30] is 16.8%; the viability, T/C under setting [31] was 16.6%; the viability, T/C under setting [32] was 14.3%; the viability, T/C under setting [33] was 2.4%; the viability, T/C under setting [34] was 6.71%; the viability, T/C under setting [35] was 5.96%.

For `O=C(C=Cn1cnc(-c2cc(C(F)(F)F)cc(C(F)(F)F)c2)n1)NNc1cnccn1`, the viability, T/C (compound 0.00949 µM) is 92.3% and 73.3% and 75.8%; the viability, T/C (compound 0.03 µM) was 77.8% and 68.4% and 79.9%; the viability, T/C (compound 0.0949 µM) is 61.5% and 30% and 30.5%; the viability, T/C (compound 0.3 µM) is 12.5% and 17.1% and 6.76%; the viability, T/C (compound 0.949 µM) is 8.28% and 8.73% and 4.72%; the viability, T/C (compound 3 µM) was 6.13% and 7.12% and 2.87%. For the same compound, where the note is “curve of compound”, the IC50 is 122 nM and 51.9 nM and 59 nM.

As to `CC1COCCN1c1cc(-c2ccnn2C)c2ccnc(-c3ccn[nH]3)c2n1` (centres undefined), the viability, T/C is, setting by setting: (compound 0.00316 µM) 107% and 90.1% and 110%; (compound 0.01 µM) 115% and 99.5% and 98.4%; (compound 0.0316 µM) 60.1% and 77.4% and 53.4%; (compound 0.1 µM) 28.1% and 43% and 29.3%; (compound 0.316 µM) 23.1% and 38.5% and 23.2%; (compound 1 µM) 16.5% and 27.6% and 19.2%. Also, under “curve of compound”, the IC50 is 43.2 nM and 79.6 nM and 38.3 nM.

For `COc1cc(Nc2ncc3c(n2)-c2ccc(Cl)cc2C(c2c(F)cccc2OC)=NC3)ccc1C(=O)O` + CC(CO)NC(=O)c1cc(-c2ccc(Cl)cc2)nn(-c2cnn(C)c2)c1=O, the IC50 was under 31.6 nM under setting [1]; under 31.6 nM under setting [2]; under 31.6 nM under setting [3]; under 31.6 nM under setting [4]; under 31.6 nM under setting [5]. For the same compound, the viability, T/C is 39.7% under setting [6]; 45.7% under setting [7]; 37.7% under setting [8]; 34.2% under setting [9]; 28.7% under setting [10]; 28.6% under setting [11]. In addition, the viability, T/C is 50.5% under setting [12]; 34.5% under setting [13]; 35.5% under setting [14]; 38.2% under setting [15]; 29.5% under setting [16]; 27.6% under setting [17]. In addition, the viability, T/C under setting [18] is 46.4%; the viability, T/C under setting [19] is 44.2%; the viability, T/C under setting [20] was 37.2%; the viability, T/C under setting [21] is 37.5%; the viability, T/C under setting [22] was 33.1%; the viability, T/C under setting [23] is 26.7%. Further, the viability, T/C is 38.4% under setting [24]; 35.4% under setting [25]; 34% under setting [26]; 35.8% under setting [27]; 30.6% under setting [28]; 27.6% under setting [29]. For the same compound, the viability, T/C under setting [30] was 35.6%; the viability, T/C under setting [31] was 39.7%; the viability, T/C under setting [32] is 39%; the viability, T/C under setting [33] is 29.2%; the viability, T/C under setting [34] is 27%; the viability, T/C under setting [35] was 28.2%.
